According to patent US20250109140A1, “5-[5-(PIPERIDIN-4-YL)THIENO[3,2-C]PYRAZOL-2-YL]INDAZOLE DERIVATIVES AND RELATED COMPOUNDS AS MODULATORS FOR SPLICING NUCLEIC ACIDS AND FOR THE TREATMENT OF PROLIFERATIVE DISEASES” (REMIX THERAPUTICS INC., priority 2022, published 2025):
Structures can show the parent of a compound that is named as a salt. Where two headings read alike, the source gives them in different places.

Legend:
Type in all cases: cell-based
HTT mRNA = test: Splicing RT-qPCR assay, HTT canonical (CJ) and alternative (AJ) junction mRNA; conditions: Homo sapiens; for EC50: AC50 = 50% response in AJ mRNA increase
Procedure: (§1) Compounds described herein were used to modulate RNA transcript abundance in cells. The expression of a target mRNA was measured by detecting the formation of an exon-exon junction in the canonical transcript (CJ). A compound mediated exon-inclusion event was detected by observing an increase in formation of a new junction with an alternative exon (AJ). Real-time qPCR assays were used to detect these splicing switches and interrogate the potency of various compounds towards different target genes. A high-throughput real time quantitative PCR (RT-qPCR) assay was developed to measure these two isoforms of the mRNA (CJ and AJ) for exemplary genes, such as HTT, SMN2, and MYB, together with a control housekeeping gene, GAPDH or GUSB or PPIA, used for normalization. Briefly, the A673 or K562 cell line was treated with various compounds described herein (e.g., compounds of Formula (I)). After treatment, the levels of the HTT, MYB, or SMN2 mRNA targets were determined from each sample of cell lysate by cDNA synthesis followed by qPCR.
(§2) The A673 cell line was cultured in DMEM with 10% FBS. Cells were diluted with full growth media and plated in a 96-well plate (15,000 cells in 100 ul media per well). The plate was incubated at 37° C. with 5% CO2 for 24 hours to allow cells to adhere. An 11-point 3-fold serial dilution of the compounds was made in DMSO then diluted in media in an intermediate plate. Compounds were transferred from the intermediate plate to the cell plate with the top dose at a final concentration of 10 uM in the well. Final DMSO concentration was kept at or below 0.25%. The cell plate was returned to the incubator at 37° C. with 5% CO2 for an additional 24 hours.
(§3) The K562 cell line was cultured in IMDM with 10% FBS. For K562, cells were diluted with full growth media and plated in either a 96-well plate (50,000 cells in 50 uL media per well) or a 384-well plate (8,000-40,000 cells in 45 uL media per well). An 11-point 3-fold serial dilution of the compounds were made in DMSO then diluted in media in an intermediate plate. Compound was transferred from the intermediate plate to the cell plate with the top dose at a final concentration of 10 uM in the well. Final DMSO concentration was kept at or below 0.25%. Final volume was 100 uL for 96-well plate and 50 uL for 384-well plate. The cell plate was then placed in an incubator at 37° C. with 5% CO2 for 24 hours.
(§4) The cells were then gently washed with 50 uL-100 uL cold PBS before proceeding to addition of lysis buffer. 30 uL-50 uL of room temperature lysis buffer with DNAse I (and optionally RNAsin) was added to each well. Cells were shaken/mixed thoroughly at room temperature for 5-10 minutes for lysis to take place and then 3 uL-5 uL of room temperature stop solution was added and wells were shaken/mixed again. After 2-5 minutes, the cell lysate plate was transferred to ice for RT-qPCR reaction setup. The lysates could also be frozen at-80° C. for later use.
(§5) In some cases, a direct lysis buffer was used. An appropriate volume of 3× lysis buffer (10 mM Tris, 150 mM NaCl, 1.5%-2.5% Igepal and 0.1-1 U/uL RNAsin, pH 7.4) was directly added to either K562 or A673 cells in media and mixed by pipetting 3 times. The plates were then incubated at room temperature with shaking/rocking for 20-50 minutes to allow for lysis to take place. After this time, the cell lysate plate was transferred to ice to set up for the RT-qPCR reactions. The lysates could also be frozen at −80° C. for later use.
(§6) To set up 10 uL RT-qPCR reactions, cell lysates were transferred to 384-well qPCR plates containing the master mix according to the table below. The plates were sealed, gently vortexed, and spun down before the run. The volumes were adjusted accordingly in some instances where the reaction was carried in 20 μL. The table below summarizes the components of the RT-qPCR reactions:
(§7) The RT-qPCR reaction was performed using a QuantStudio (ThermoFisher) under the following fast cycling conditions. […]

SMN2 mRNA = test: Splicing RT-qPCR gene panel, SMN2 canonical junction (CJ) mRNA; conditions: Homo sapiens; Table 8; larger gene panel, decrease in CJ mRNA levels
Procedure: as §1, §2, §3, §4, §5, §6, §7

Target C mRNA = test: Splicing RT-qPCR gene panel, Target C canonical junction (CJ) mRNA; conditions: Homo sapiens; Table 8; larger gene panel, decrease in CJ mRNA levels
Procedure: as §1, §2, §3, §4, §5, §6, §7

MYB mRNA = test: Splicing RT-qPCR assay, MYB canonical (CJ) and alternative (AJ) junction mRNA; conditions: Homo sapiens; for EC50: AC50 = 50% response in AJ mRNA increase
Procedure: as §1, §2, §3, §4, §5, §6, §7

[1] = Table 7, RT-qPCR, A673 or K562 cells, 24 hours treatment
[2] = Table 7, IC50 = 50% response in CJ mRNA decrease, RT-qPCR, A673 or K562 cells, 24 hours treatment, read-out: HTT CJ
[3] = Table 8, larger gene panel, decrease in CJ mRNA levels, read-out: HTT CJ IC50
[4] = Table 7, IC50 = 50% response in CJ mRNA decrease, RT-qPCR, A673 or K562 cells, 24 hours treatment, read-out: MYB CJ
[5] = Table 8, larger gene panel, decrease in CJ mRNA levels, read-out: MYB CJ IC50

| SMILES | EC50 (HTT mRNA; [1]) [nM] | IC50 (HTT mRNA; [2]) [nM] | IC50 (HTT mRNA; [3]) [nM] | IC50 (SMN2 mRNA) [nM] | IC50 (Target C mRNA) [nM] | EC50 (MYB mRNA; [1]) [nM] | IC50 (MYB mRNA; [4]) [nM] | IC50 (MYB mRNA; [5]) [nM] |
| --- | --- | --- | --- | --- | --- | --- | --- | --- |
| Cn1cc2cc(N3Cc4cc(C5CCNCC5)sc4C3=O)cc(F)c2n1 [Compound 1118, 5-(7-fluoro-2-methylindazol-5-yl)-2-(piperidin-4-yl)-4H-thieno[2,3-c]pyrrol-6-one] | 100 to 1000 | 100 to 1000 | 100 to 1000 | < 100 | 1000 to 10000 | 1000 to 10000 | 1000 to 10000 | 1000 to 10000 |
| COc1c(-c2nc3sc(C4CCNCC4)cc3s2)cc2cn(C)nc2c1F [Compound 242, 7-fluoro-6-methoxy-2-methyl-5-[5-(piperidin-4-yl)thieno[2,3-d][1,3]thiazol-2-yl]indazole] | < 100 | < 100 | < 100 | < 100 | < 100 | < 100 | < 100 | < 100 |
| Cc1cn2nc(-c3nc4sc(C5=CCOCC5)cc4s3)cc(C)c2n1 [Compound 195, 6-[5-(3,6-dihydro-2H-pyran-4-yl)thieno[2,3-d][1,3]thiazol-2-yl]-2,8-dimethylimidazo[1,2-b]pyridazine] | 100 to 1000 | 100 to 1000 | 100 to 1000 | 100 to 1000 | 100 to 1000 | 100 to 1000 | 100 to 1000 | 100 to 1000 |
| Cc1cn2cc(-c3nc4sc(C5CCNCC5)cc4s3)nc(C)c2n1 [Compound 270, 4-(2-{2,8-dimethylimidazo[1,2-a]pyrazin-6-yl}thieno[2,3-d][1,3]thiazol-5-yl)piperidine] | 100 to 1000 | < 100 | 100 to 1000 | < 100 | 100 to 1000 | 1000 to 10000 | 100 to 1000 | 1000 to 10000 |
| Cn1cc2cc(-c3nc4sc(N5CCN6CCCC6C5)cc4s3)cc(F)c2n1 (stereo not shown) [Compound 144, 7-fluoro-5-(5-[hexahydro-1H-pyrrolo[1,2-a]pyrazin-2-yl]thieno[2,3-d][1,3]thiazol-2-yl)-2-methylindazole] | 100 to 1000 | 1000 to 10000 | 100 to 1000 | < 100 | > 10000 | 100 to 1000 | 1000 to 10000 | 100 to 1000 |
| Cc1cc(-c2cc3cn([C@@H]4CCNC[C@@H]4F)nc3s2)cc2cn(C)nc12 (single isomer, unassigned) [Compound 244] | 100 to 1000 | 100 to 1000 | 100 to 1000 | < 100 | 100 to 1000 | 1000 to 10000 | 100 to 1000 | 100 to 1000 |
| C[C@@H]1C[C@@H](c2cc3sc(-c4cc(F)c5nn(C)cc5c4)nc3s2)CCN1 (stereo in doubt) [Compound 263, 7-fluoro-2-methyl-5-{5-[(2R,4S)-2-methylpiperidin-4-yl]thieno[2,3-d][1,3]thiazol-2-yl}indazole] | < 100 | < 100 | < 100 | < 100 | 100 to 1000 | 100 to 1000 | 100 to 1000 | 100 to 1000 |
| Cc1cc(-c2nc3sc(C4CCNCC4)cc3s2)cc2cn(C)nc12 [Compound 238, 2,7-dimethyl-5-[5-(piperidin-4-yl)thieno[2,3-d][1,3]thiazol-2-yl]indazole] | < 100 | < 100 | < 100 | < 100 | 100 to 1000 | 100 to 1000 | 100 to 1000 | 100 to 1000 |
| Cn1cc2cc(-c3nc4sc(N5CCC56CCNC6)cc4s3)cc(F)c2n1 (stereo not shown) [Compound 200, 5-(5-{1,6-diazaspiro[3.4]octan-1-yl}thieno[2,3-d][1,3]thiazol-2-yl)-7-fluoro-2-methy-lindazole] | > 10000 | > 10000 | > 10000 | 1000 to 10000 | > 10000 | > 10000 | > 10000 | > 10000 |
| CN1CC2(C1)CN(c1cc3sc(-c4cc(F)c5nn(C)cc5c4)nc3s1)C2 [Compound 146, 7-fluoro-2-methyl-5-(5-[6-methyl-2,6-diazaspiro[3.3]heptan-2-yl]thieno[2,3-d][1,3]thiazol-2-yl)indazole] |  |  | 100 to 1000 | < 100 | 100 to 1000 |  |  | 100 to 1000 |
| Cc1cc(N2Cc3sc(C4CCNCC4)cc3C2=O)cc2cn(C)nc12 [Compound 1122] | 100 to 1000 | 100 to 1000 | 100 to 1000 | 100 to 1000 | 100 to 1000 | 100 to 1000 | 100 to 1000 | 100 to 1000 |
| Cn1cc2cc(-c3nc4sc(N5CCC6(CCN6)C5)cc4s3)cc(F)c2n1 (stereo not shown) [Compound 233, 5-(5-{1,6-diazaspiro[3.4]octan-6-yl}thieno[2,3-d][1,3]thiazol-2-yl)-7-fluoro-2-methylindazole] | 1000 to 10000 | 1000 to 10000 | 1000 to 10000 | < 100 | > 10000 | 1000 to 10000 | 1000 to 10000 | 1000 to 10000 |
| CCNC1CCN(c2cc3sc(-c4cc(F)c5nn(C)cc5c4)nc3s2)CC1 [Compound 137, N-ethyl-1-[2-(7-fluoro-2-methylindazol-5-yl)thieno[2,3-d][1,3]thiazol-5-yl]piperidin-4-amine] | 100 to 1000 | 100 to 1000 | 100 to 1000 | < 100 | 100 to 1000 | 100 to 1000 | 100 to 1000 | 100 to 1000 |
| Cn1cc2ccc(-c3nc4sc(C5CCNCC5)cc4s3)cc2n1 [Compound 127, 2-methyl-6-[5-(piperidin-4-yl)thieno [2,3-d][1,3]thiazol-2-yl]indazole hydrochloride] | 1000 to 10000 | 1000 to 10000 | 1000 to 10000 | 1000 to 10000 | 1000 to 10000 | 1000 to 10000 | 1000 to 10000 | 1000 to 10000 |
| CC1CN(c2cc3sc(-c4cc(F)c5nn(C)cc5c4)nc3s2)CCN1C (stereo not shown) [Compound 128, 5-[5-(3,4-dimethylpiperazin-1-yl)thieno[2,3-d][1,3]thiazol-2-yl]-7-fluoro-2-methylindazole] | 1000 to 10000 | 1000 to 10000 | 1000 to 10000 | 100 to 1000 | 1000 to 10000 | 1000 to 10000 | 1000 to 10000 | 1000 to 10000 |
| CN1CCC(c2cc3sc(-c4cc(F)c5nn(C)cc5c4)nc3s2)CC1 [Compound 151, 7-fluoro-2-methyl-5-[5-(1-methylpiperidin-4-yl)thieno[2,3-d][1,3]thiazol-2-yl]indazole] | < 100 | < 100 | < 100 | < 100 | 100 to 1000 | 1000 to 10000 | 100 to 1000 | 1000 to 10000 |
